Several values for one entry are separate records, joined by “and”; a condition that tells them apart may be missing. Identical values can stand only once.
Experiment: Pharmacokinetic studies in mice (intravenous and intramuscular, plasma, HPLC-MS/MS)
Type: in vivo, BALB/c mice
Parameters: AUClast / AUCall / AUCINF_obs / AUCINF_pred / AUCINFobs: concentration or dose not given beside the values; Tlast / Clast / AUMClast / AUMCINF_obs / AUMCINF_pred / Lambda_z / HL_Lambda_z / Cl_obs / Cl_pred / Cl_F_obs / Tlag / Cl_F_pred: unit not given here
Conditions: for plasma concentration, AV: average of mice; for plasma concentration: individual mice 1-8
Experimental: Pharmacokinetic experimental procedures of compound 16C were measured according to previous reports with some modifications ([Wang et al., 2022]). In brief, BALB/c mice were divided into two groups of eight mice each; one group was injected intravenously and the other was injected intramuscularly with compound 16C at a dose of 10 mg/kg. The dose was based on previous studies of novel pleuromutilin derivatives ([Jin et al., 2019]; [Wang et al., 2022]). Meanwhile, the dose of tiamulin approved by the European Union for intramuscular administration is 10–20 mg/kg ([EMA, 1999]). The volume of the injection was 0.1 mL/10 g. The compound 16C formulation was a filtered solution in 5% DMSO, 5% Tween-80, and 90% normal saline. Blood was obtained from eight mice via the ocular venous plexus at 0.083, 0.167, 0.25, 0.334, 0.5, 0.75, 1, 1.5, 2, 3, 4, 6, 8, and 12 h following tail intravenous or thigh Intramuscular injection. A glass capillary with a diameter of 0.3 mm was inserted into the outer canthus of the mouse, and 200 μL blood was collected using a 1.5 mL anticoagulant centrifuge tube. The blood was centrifuged at 3,000 rpm for 10 min to obtain plasma. 100 μL of plasma was aspirated for drug concentration detection, and eight parallel samples from different mice were obtained at each time point.
All pharmacokinetic experimental samples and method validation samples were added with 4 times the volume of acetonitrile and shaken for 1 min, centrifuged at high speed at 13,000× g for 10 min, and the supernatants were taken and filtered to detect the drug concentration. Some samples with high concentrations were diluted to the linear range prior to analysis.
The extracted samples were analyzed using a high-performance liquid chromatography-tandem mass spectrometry (HPLC-MS/MS) system (Agilent, Santa Clara, CA, United States) 1200 HPLC and Applied Biosystems (Waltham, MA, United States) API 4000 mass spectrometer). HPLC-MS/MS analysis using a Zorbax Eclipse XDB-C18 (4.6 × 50 mm, 3.5 μm) column (Agilent). The mobile phase A (acetonitrile) and B (water) were applied as a gradient as follows: 0–3 min: 15%–95% A and maintain from 3 min to 5 min at 95% A. 5–5.1 min: 95%–15% A and maintain from 5.1 to 10 min at 15% A. Flow rate: 500 μL/min; column temperature: 30°C and injection volume: 4 μL. The electrospray ionization (ESI) source of the mass spectrometer was operated in […], with the following ion source parameters: ion spray voltage 4,500 V, collision gas 7 psi, ion source gas 1 55 psi, ion source gas 2 40 psi, curtain gas 20 psi, source temperature 600°C. The precursor ion m/z of Compound 16C was 633.3, and the product ions m/z were 272.0 (quantifier) 286.9 and 313.0. Declustering potentials (DP) were 140, 140, and 144 V, respectively; entrance potential (EP) was 10 V; collision energy (CE) was 55, 46, and 15 V, respectively; and collision cell exit potential (CXP) was 14 V.
[…] Pharmacokinetic parameters include time to maximum concentration (Tmax), maximum concentration (Cmax), the area under the plasma concentration–time curve (AUC0-∞), clearance rate (CL), the apparent volume of distribution (Vd), bioavailability (F), elimination half-life (T1/2kel) and absorption half-life (T1/2ka).

C=C[C@]1(C)C[C@@H](OC(=O)CSc2ccc(NC(=O)Cc3ccc([N+](=O)[O-])cc3)cc2)[C@]2(C)[C@H](C)CC[C@]3(CCC(=O)[C@H]32)[C@@H](C)[C@@H]1O
plasma concentration, AV (IM, 0.083h): 0.4091 µg/mL | plasma concentration, AV (IM, 0.17h): 0.4708 µg/mL | plasma concentration, AV (IM, 0.25h): 0.496 µg/mL | plasma concentration, AV (IM, 0.33h): 0.49 µg/mL | plasma concentration, AV (IM, 0.5h): 0.4491 µg/mL | plasma concentration, AV (IM, 0.75h): 0.4042 µg/mL | plasma concentration, AV (IM, 1h): 0.2812 µg/mL | plasma concentration, AV (IM, 1.5h): 0.2464 µg/mL | plasma concentration (IM, 1.5h): 0.189 µg/mL and 0.266 µg/mL and 0.253 µg/mL and 0.291 µg/mL and 0.29 µg/mL and 0.328 µg/mL and 0.158 µg/mL and 0.196 µg/mL | plasma concentration, AV (IM, 2h): 0.1584 µg/mL | plasma concentration (IM, 2h): 0.1 µg/mL and 0.171 µg/mL and 0.124 µg/mL and 0.153 µg/mL and 0.195 µg/mL and 0.254 µg/mL and 0.139 µg/mL and 0.131 µg/mL | plasma concentration, AV (IM, 3h): 0.1232 µg/mL | plasma concentration (IM, 3h): 0.0925 µg/mL and 0.183 µg/mL and 0.129 µg/mL and 0.115 µg/mL and 0.122 µg/mL and 0.146 µg/mL and 0.111 µg/mL and 0.087 µg/mL | plasma concentration, AV (IM, 4h): 0.08454 µg/mL | plasma concentration (IM, 4h): 0.0676 µg/mL and 0.0996 µg/mL and 0.0799 µg/mL and 0.104 µg/mL and 0.0845 µg/mL and 0.117 µg/mL and 0.0516 µg/mL and 0.0721 µg/mL | plasma concentration, AV (IM, 6h): 0.03703 µg/mL | plasma concentration (IM, 6h): 0.027 µg/mL and 0.0518 µg/mL and 0.0314 µg/mL and 0.0431 µg/mL and 0.0358 µg/mL and 0.0433 µg/mL and 0.02 µg/mL and 0.0438 µg/mL | plasma concentration, AV (IM, 8h): 0.01845 µg/mL | plasma concentration (IM, 8h): 0.0131 µg/mL and 0.0253 µg/mL and 0.0167 µg/mL and 0.0192 µg/mL and 0.015 µg/mL and 0.0227 µg/mL and 0.013 µg/mL and 0.0226 µg/mL | plasma concentration, AV (IM, 12h): 0.006302 µg/mL | plasma concentration (IM, 12h): 0.00185 µg/mL and 0.00651 µg/mL and 0.00587 µg/mL and 0.00637 µg/mL and 0.00483 µg/mL and 0.00604 µg/mL and 0.0097 µg/mL and 0.00925 µg/mL | AUCINF_obs (IM, individual mice): 1087.9 and 805.258 and 1373.07 and 1092.7 and 1076.67 and 1204.87 and 1450.76 and 1023.1 | AUCINF_pred (IM, individual mice): 1087.68 and 805.26 and 1373.07 and 1092.68 and 1076.58 and 1204.84 and 1450.76 and 1021.5 | AUC_%Extrap_obs (IM, individual mice): 3.4748% and 0.4887% and 1.3883% and 1.9994% and 1.9823% and 1.3449% and 1.2619% and 9.501% | AUC_%Extrap_pred (IM, individual mice): 3.4549% and 0.489% and 1.388% and 1.9971% and 1.9741% and 1.3423% and 1.262% and 9.3589% | AUCall (IM, individual mice): 1050.1 and 801.322 and 1354.01 and 1070.85 and 1055.33 and 1188.66 and 1432.45 and 925.896 | AUClast (IM, individual mice): 1050.1 and 801.322 and 1354.01 and 1070.85 and 1055.33 and 1188.66 and 1432.45 and 925.896 | AUMCINF_obs (IM, individual mice): 3193.81 and 1900.71 and 3591.01 and 2771.66 and 3099.57 and 2821.33 and 3581.57 and 4169.2 | AUMCINF_pred (IM, individual mice): 3190.21 and 1900.74 and 3590.96 and 2771.26 and 3098.18 and 2820.84 and 3581.6 and 4133.86 | AUMC_%Extrap_obs (IM, individual mice): 19.0405% and 2.9249% and 7.9241% and 12.3927% and 10.57% and 8.8194% and 7.6827% and 51.3426% | AUMC_%Extrap_pred (IM, individual mice): 18.949% and 2.9266% and 7.9228% and 12.3802% and 10.53% and 8.8035% and 7.6834% and 50.9267% | AUMClast (IM, individual mice): 2585.7 and 1845.12 and 3306.46 and 2428.17 and 2771.94 and 2572.51 and 3306.41 and 2028.62 | Cl_F_obs (IM, individual mice): 9192.03 and 0.0124 and 0.0073 and 0.0092 and 0.0093 and 0.0083 and 0.0069 | Cl_F_pred (IM, individual mice): 0.0124 and 0.0073 and 0.0092 and 0.0093 and 0.0083 and 0.0069 | Clast (IM, individual mice): 9.25 and 1.85 and 6.51 and 5.87 and 6.37 and 4.83 and 6.04 and 9.7 | Cmax (IM, individual mice): 520 and 469 and 730 and 550 and 410 and 609 and 667 and 531 | HL_Lambda_z (IM, individual mice): 2.8327 and 1.4744 and 2.0296 and 2.5798 and 2.3224 and 2.3255 and 2.1008 and 6.9461 | Tlag (IM, individual mice): 0 | Tlast (IM, individual mice): 12 | Lambda_z (IM, individual mice, non-compartmental analysis): 0.2447 and 0.4701 and 0.3415 and 0.2687 and 0.2985 and 0.2981 and 0.3299 and 0.0998 | MRTINF_obs (IM, individual mice, in h): 2.9358 and 2.3604 and 2.6153 and 2.5365 and 2.8788 and 2.3416 and 2.4688 and 4.0751 | MRTINF_pred (IM, individual mice, in h): 2.9331 and 2.3604 and 2.6153 and 2.5362 and 2.8778 and 2.3413 and 2.4688 and 4.0469 | MRTlast (IM, individual mice, in h): 2.4623 and 2.3026 and 2.442 and 2.2675 and 2.6266 and 2.1642 and 2.3082 and 2.191 | Tmax (IM, individual mice, in h): 0.25 and 0.33 and 0.5 and 0.17 and 0.75 | plasma concentration, AV (IV, 0.083h): 0.004976 µg/mL

Source: paper PMC11695783 (Frontiers in Pharmacology, 2024)
